How the values were obtained:
[1] = test system: patients with advanced cancer diseases; assay: Phase I dose-escalation trial of intravenously administered sodium selenite: toxicity and MTD; assay type: in vivo, human
Method: In a previous study, the present inventors carried out the first in-human phase-I trial to determine the MTD of intravenously administered sodium selenite in patients with advanced cancer diseases.
This phase I trial is an open-label dose-escalation study of i.v. administered sodium selenite. Each cohort consists of three patients who are treated with dosages regimens according to a predefined schedule having the two-step dosage regimen.
Serious toxicity in primarily the brain and the heart has been recorded in patients treated with high doses of selenite.
With a few exceptions, all patients visited the clinic before and after infusion, at least once a week during the treatment, before each chemotherapy treatment and at the end of treatment. At these occasions, the medical history is recorded, and a physical examination is performed. Patients undergo CT or PET-CT examination one week before the start, three days after the completion of the selenite treatment and after the final chemotherapy treatment. Routine blood parameters are analysed before, during and after the treatment. The ECG is examined before the start and after both the selenite and chemotherapy treatments.

[2] = Pharmacokinetics: plasma selenium by ICP-MS, one compartment infusion model; assay type: in vivo, human
Method: Blood samples are collected about 5 minutes prior and post infusion at all treatments. The plasma fractions are obtained by centrifugation and stored at -70°C until analyses.
Pharmacokinetic analyses are performed by using the Win-Nonlin program Standard Edition version 1.5 (Pharsight Corporation, Mountain View, CA, USA).
The one compartment infusion model was used for the evaluation of the pharmacokinetics. The reciprocal concentrations were used as weights for the iterative procedure. […] AUC values during the entire treatment period (i.e. from day 0 to day 35) were evaluated by applying the trapezoidal rule to estimated time-concentration curves.

[3] = test system: patients with advanced cancer diseases; conditions: SECAR clinical phase I study; intermittent daily infusions (20-40 minutes); Brodin et al. 2014; cited from earlier work
cancer patients = conditions: cumulative intravenous administration of 100 mg; reports about a century ago; cited from earlier work

## O=[Se](O)O [sodium selenite]
[1]; 3.0 mg/m^2, cohort 2
  Toxicity registered from similar dose, during similar time but as intermittent infusion: 3.0 mg/m^2, cohort 2, no certain toxicity,
[1]; 4.5 mg/m^2, cohort 3
  Toxicity registered from similar dose, during similar time but as intermittent infusion: very mild toxicity
[1]; 6.0 mg/m^2, cohort 4
  Toxicity registered from similar dose, during similar time but as intermittent infusion: 6.0 mg/m^2, cohort 4, mild toxicity
[1]; 9.0 mg/m2, cohort 5
  Toxicity registered from similar dose, during similar time but as intermittent infusion: gr 1 toxicity
[1]; 20.4 mg/m^2, cohort 7
  Toxicity registered from similar dose, during similar time but as intermittent infusion: grade 2 toxicity
[1]; 38.4 mg/m^2, cohort 10
  Toxicity registered from similar dose, during similar time but as intermittent infusion: 38.4 mg/m^2, cohort 10, gr 3 & gr 4 toxicity
[1]; DLT appeared some hours after selenite infusion, without persisting toxicity or sequelae
  duration of dose-limiting toxicity (DLT): 6 to 8 h
[1]; at MTD dose (10.2 mg/m^2) and below
  bone marrow toxicity: no bone marrow toxicity was evident
[1]; cohort 8, total dose given as intermittent infusion over similar time
  MTD for repeated infusions: 30.6 mg/m2
[1]; could be dose-limiting in spite of antiemetic treatment
  toxicity mainly observed as: nausea, vomiting and fatigue
[1]; especially at high dose levels such as beyond MTD
  most significant adverse effects: heart toxicity with signs of ischemia, confusion and unconsciousness
[1]; intravenously administered, previous first in-human phase-I trial, well tolerated at doses up to this value
  MTD: 10.2 mg/m^2
[2]; high doses of repeated selenite administration
  plasma selenite concentration at the end of the treatment: returned to the baseline levels
[2]; in vivo
  plasma selenite concentration with respect to the total dose: linear increase
[3]
  maximum tolerated dose: approximately 10.2 mg/m^2
Cancer patients
  toxic effects: no incidence of toxic effects

— EP3389676B1, “DOSAGE REGIMEN OF SODIUM SELENITE IN THE TREATMENT OF CANCER” (Pharma Nord ApS, priority 2015, dated 2017)
